How the values were obtained:
[1] = biological target: T1, hClpP (Homo sapiens, UniProt Q16740); assay: activating ClpP hydrolysis of FITC-casein (fluorescence kinetic detection); format: biochemical; conditions: hClpP 1 μM, FITC-Casein 4 μM, 37° C.
T1 construct: made in house
Protocol: The specific procedures were as follows:
Test compounds were each prepared into a 100 mM stock solution in DMSO and stored. and 1 μL of stock solution of each of the compounds was taken and diluted to 10 mM by adding 9 μL of DMSO for later use.
The compounds of formula I of the present invention were each diluted at concentrations of 200 μM, 50 μM, 10 μM, 2 μM, 500 nM, 100 nM, 20 nM, and 2 nM in an assay buffer. 50 μL of each of the compounds at different concentrations was added to each well, with 2 replicate wells.
The protein was diluted to 4 μM in an assay buffer. 25 μL of protein was added to each well, and incubated at 37° C. for 30 min. The final concentration was 1 μM.
25 μL of FITC-Casein was added to each well. The final concentration was 4 μM. The mixture was immediately loaded on the machine for detection.
FITC-Casein and FITC-Casein+ClpP were used as negative controls.
The detection temperature was 37° C. The plate was shaken for 3 s. […] Kinetic parameters were set, and scanning was performed once every 1 min for 15 min.

[2] = system: MV4; 11 cells; assay: inhibiting the growth of MV4; 11 cells; format: cell-based; conditions: Homo sapiens

T1 sequence (Q16740 57-277): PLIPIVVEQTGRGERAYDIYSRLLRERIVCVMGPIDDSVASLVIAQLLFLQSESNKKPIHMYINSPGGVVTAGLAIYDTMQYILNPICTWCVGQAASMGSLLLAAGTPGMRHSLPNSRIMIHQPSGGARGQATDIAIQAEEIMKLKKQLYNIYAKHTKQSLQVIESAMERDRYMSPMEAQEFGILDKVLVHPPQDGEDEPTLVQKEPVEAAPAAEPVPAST

Structure (SMILES) | EC50 [1] [µM] | IC50 [2] [µM]
O=c1c2c(c3cccnc3n1Cc1ccccc1)CCN(CC1CC1)C2 [Compound I-1, 6-benzyl-3-(cyclopropylmethyl)-2,3,4,6-tetrahydropyrido[3,4-c][1,8]naphthyridine-5-(1H)-one] | 10 to 100 | 1 to 10
O=c1c2c(c3cccnc3n1Cc1ccccc1)CCN(CC1CCC1)C2 [Compound I-2, 6-benzyl-3-(cyclobutylmethyl)-2,3,4,6-tetrahydropyrido[3,4-c][1,8]naphthyridine-5-(1H)-one] | 10 to 100 | 1 to 10
O=c1c2c(c3cccnc3n1Cc1ccccc1)CCN(CC1CCCC1)C2 [Compound I-3, 6-benzyl-3-(cyclopentylmethyl)-2,3,4,6-tetrahydropyrido[3,4-c][1,8]naphthyridine-5-(1H)-one] | 10 to 100 | 1 to 10
O=c1c2c(c3cccnc3n1Cc1ccccc1)CCN(CC1CCCCC1)C2 [Compound I-4, 6-benzyl-3-(cyclohexylmethyl)-2,3,4,6-tetrahydropyrido[3,4-c][1,8]naphthyridine-5-(1H)-one] | 10 to 100 | < 1
O=c1c2c(c3cccnc3n1Cc1ccccc1)CCN(Cc1ccccc1)C2 [Compound I-5, 3,6-dibenzyl-2,3,4,6-tetrahydropyrido[3,4-c][1,8]naphthyridine-5-(1H)-one] | 1 to 10 | < 1
O=c1c2c(c3cccnc3n1Cc1ccccc1)CCN(Cc1ccccc1F)C2 [Compound I-6, 6-benzyl-3-(2-fluorobenzyl)-2,3,4,6-tetrahydropyrido[3,4-c][1,8]naphthyridine-5-(1H)-one] | 1 to 10 | < 1
O=c1c2c(c3cccnc3n1Cc1ccccc1)CCN(Cc1ccccc1Cl)C2 [Compound I-7, 6-benzyl-3-(2-chlorobenzyl)-2,3,4,6-tetrahydropyrido[3,4-c][1,8]naphthyridine-5-(1H)-one] | 1 to 10 | < 1
O=c1c2c(c3cccnc3n1Cc1ccccc1)CCN(Cc1ccccc1Br)C2 [Compound I-8, 6-benzyl-3-(2-bromobenzyl)-2,3,4,6-tetrahydropyrido[3,4-c][1,8]naphthyridine-5-(1H)-one] | 1 to 10 | < 1
Cc1ccccc1CN1CCc2c(c(=O)n(Cc3ccccc3)c3ncccc23)C1 [Compound I-9, 6-benzyl-3-(2-methylbenzyl)-2,3,4,6-tetrahydropyrido[3,4-c][1,8]naphthyridine-5-(1H)-one] | 1 to 10 | < 1
CCc1ccccc1CN1CCc2c(c(=O)n(Cc3ccccc3)c3ncccc23)C1 [Compound I-10, 6-benzyl-3-(2-ethylbenzyl)-2,3,4,6-tetrahydropyrido[3,4-c][1,8]naphthyridine-5-(1H)-one] | 1 to 10 | < 1
COc1ccccc1CN1CCc2c(c(=O)n(Cc3ccccc3)c3ncccc23)C1 [Compound I-11, 6-benzyl-3-(2-methoxybenzyl)-2,3,4,6-tetrahydropyrido[3,4-c][1,8]naphthyridine-5-(1H)-one] | 1 to 10 | < 1
O=c1c2c(c3cccnc3n1Cc1ccccc1)CCN(Cc1cccc(F)c1)C2 [Compound I-12, 6-benzyl-3-(3-fluorobenzyl)-2,3,4,6-tetrahydropyrido[3,4-c][1,8]naphthyridine-5-(1H)-one] | < 1 | < 1
O=c1c2c(c3cccnc3n1Cc1ccccc1)CCN(Cc1cccc(Cl)c1)C2 [Compound I-13, 6-benzyl-3-(3-chlorobenzyl)-2,3,4,6-tetrahydropyrido[3,4-c][1,8]naphthyridine-5-(1H)-one] | < 1 | < 1
O=c1c2c(c3cccnc3n1Cc1ccccc1)CCN(Cc1cccc(Br)c1)C2 [Compound I-14, 6-benzyl-3-(3-bromobenzyl)-2,3,4,6-tetrahydropyrido[3,4-c][1,8]naphthyridine-5-(1H)-one] | < 1 | < 1
Cc1cccc(CN2CCc3c(c(=O)n(Cc4ccccc4)c4ncccc34)C2)c1 [Compound I-15, 6-benzyl-3-(3-methylbenzyl)-2,3,4,6-tetrahydropyrido[3,4-c][1,8]naphthyridine-5-(1H)-one] | < 1 | < 1
CCc1cccc(CN2CCc3c(c(=O)n(Cc4ccccc4)c4ncccc34)C2)c1 [Compound I-16, 6-benzyl-3-(3-ethylbenzyl)-2,3,4,6-tetrahydropyrido[3,4-c][1,8]naphthyridine-5-(1H)-one] | 1 to 10 | < 1
COc1cccc(CN2CCc3c(c(=O)n(Cc4ccccc4)c4ncccc34)C2)c1 [Compound I-17, 6-benzyl-3-(3-methoxybenzyl)-2,3,4,6-tetrahydropyrido[3,4-c][1,8]naphthyridine-5-(1H)-one] | 1 to 10 | < 1
O=c1c2c(c3cccnc3n1Cc1ccccc1)CCN(Cc1ccc(F)cc1)C2 [Compound I-18, 6-benzyl-3-(4-fluorobenzyl)-2,3,4,6-tetrahydropyrido[3,4-c][1,8]naphthyridine-5-(1H)-one] | 1 to 10 | < 1
O=c1c2c(c3cccnc3n1Cc1ccccc1)CCN(Cc1ccc(Cl)cc1)C2 [Compound I-19, 6-benzyl-3-(4-chlorobenzyl)-2,3,4,6-tetrahydropyrido[3,4-c][1,8]naphthyridine-5-(1H)-one] | 1 to 10 | < 1
O=c1c2c(c3cccnc3n1Cc1ccccc1)CCN(Cc1ccc(Br)cc1)C2 [Compound I-20, 6-benzyl-3-(4-bromobenzyl)-2,3,4,6-tetrahydropyrido[3,4-c][1,8]naphthyridine-5-(1H)-one] | 1 to 10 | < 1
Cc1ccc(CN2CCc3c(c(=O)n(Cc4ccccc4)c4ncccc34)C2)cc1 [Compound I-21, 6-benzyl-3-(4-methylbenzyl)-2,3,4,6-tetrahydropyrido[3,4-c][1,8]naphthyridine-5-(1H)-one] | 1 to 10 | < 1
CCc1ccc(CN2CCc3c(c(=O)n(Cc4ccccc4)c4ncccc34)C2)cc1 [Compound I-22, 6-benzyl-3-(4-ethylbenzyl)-2,3,4,6-tetrahydropyrido[3,4-c][1,8]naphthyridine-5-(1H)-one] | 1 to 10 | < 1
COc1ccc(CN2CCc3c(c(=O)n(Cc4ccccc4)c4ncccc34)C2)cc1 [Compound I-23, 6-benzyl-3-(4-methoxybenzyl)-2,3,4,6-tetrahydropyrido[3,4-c][1,8]naphthyridine-5-(1H)-one] | 1 to 10 | < 1
Cn1ccc(CN2CCc3c(c(=O)n(Cc4ccccc4)c4ncccc34)C2)n1 [Compound I-24, 6-benzyl-3-((1-methyl-1H-pyrazol-3-yl)methyl)-2,3,4,6-tetrahydropyrido[3,4-c][1,8]naphthyridine-5-(1H)-one] | 10 to 100 | 1 to 10
Cn1nccc1CN1CCc2c(c(=O)n(Cc3ccccc3)c3ncccc23)C1 [Compound I-25, 6-benzyl-3-((1-methyl-1H-pyrazol-5-yl)methyl)-2,3,4,6-tetrahydropyrido[3,4-c][1,8]naphthyridine-5-(1H)-one] | 10 to 100 | 1 to 10
O=c1c2c(n3ccnc3n1Cc1ccc(C(F)(F)F)cc1)CCN(Cc1cccc(Cl)c1)C2 [Compound I-129, 7-(3-chlorobenzyl)-4-(4-trifluoromethylbenzyl)-6,7,8,9-tetrahydroimidazo[1,2-a]pyrido[3,4-e]pyrimidine-5(4H)-one] |  | < 1
